Where no end group is shown, it is not given here.
How the values were obtained:
S. aureus ATCC 12600 = experiment: MIC, broth microdilution; assay type: cell-based, Staphylococcus aureus; conditions: LB broth, 5 × 10^5 CFU mL^−1, 24 h at 37°C, OD 600 nm, three replicates
E. coli ATCC 11775 = experiment: MIC, broth microdilution; assay type: cell-based, Escherichia coli; conditions: LB broth, 5 × 10^5 CFU mL^−1, 24 h at 37°C, OD 600 nm, three replicates
P. aeruginosa PAO1 [1] = experiment: Synergy; assay type: cell-based, Pseudomonas aeruginosa; conditions: checkerboard; for FICI, combined with PMB: 2- to 0.03-fold MIC, 24 h at 37°C, three replicates; for FICI, WT1 and WT2 in combination: different concentrations
P. aeruginosa PA14 = experiment: MIC, broth microdilution; assay type: cell-based, Pseudomonas aeruginosa; conditions: LB broth, 5 × 10^5 CFU mL^−1, 24 h at 37°C, OD 600 nm, three replicates
P. aeruginosa PAO1 [2] = experiment: MIC, broth microdilution; assay type: cell-based, Pseudomonas aeruginosa; conditions: LB broth, 5 × 10^5 CFU mL^−1, 24 h at 37°C, OD 600 nm, three replicates
human erythrocytes = conditions: at a concentration of 10^−4 mol L^−1; cited from earlier work
mouse erythrocytes = conditions: at a concentration of 10^−4 mol L^−1; cited from earlier work
[3] = test system: human embryonic kidney (HEK) cells (ATCC HEK293T); experiment: Cytotoxicity, XTT assay; assay type: cell-based
[4] = test system: primary human keratinocytes; experiment: Cytotoxicity, XTT assay; assay type: cell-based; conditions: for toxicity: at the highest concentration tested, 64 μmol L^−1, 24 h
[5] = test system: E. coli JW2703 (hypermutant strain) ΔmutS::kan; experiment: Resistance development assay; assay type: cell-based, Escherichia coli; conditions: over the same period (20 days)

## LKLMAIVKKVLGAL-NH2 [A5–1]
S. aureus ATCC 12600
  MIC: 4 µM
E. coli ATCC 11775
  MIC: 4 µM

## LKLLGIVKKVLGAI-NH2 [WT2, reference compound]
S. aureus ATCC 12600
  MIC: 32 µM
P. aeruginosa PAO1 [1]
  FICI, combined with PMB: 0.5
  FICI, WT1 and WT2 in combination: 0.7
E. coli ATCC 11775
  MIC: 16 µM
P. aeruginosa PA14
  MIC: 64 µM
P. aeruginosa PAO1 [2]
  MIC: 32 µM
Human erythrocytes
  hemolytic activity: hemolytic activity
Mouse erythrocytes
  hemolytic activity: hemolytic activity

## LKLAGIVKKVLGAL-NH2 [A4–1]
S. aureus ATCC 12600
  MIC: 8 µM
E. coli ATCC 11775
  MIC: 4 µM

## LKLMGIVKKVLAAL-NH2 [A12–1]
S. aureus ATCC 12600
  MIC: 2 µM
E. coli ATCC 11775
  MIC: 2 µM

## LKLLGIVKKVLGKI-NH2 [K13–2]
E. coli ATCC 11775
  MIC: 4 µM
[3]; any of the concentrations tested (1 to 64 μmol L^−1), 24 h
  toxicity: no toxicity
P. aeruginosa PA14
  MIC: 16 µM
P. aeruginosa PAO1 [2]
  MIC: 4 µM
[4]
  toxicity: low toxicity

## AKLMGIVKKVLGAL-NH2 [A1–1]
S. aureus ATCC 12600
  MIC: 8 µM
E. coli ATCC 11775
  MIC: 4 µM
P. aeruginosa PA14
  MIC: 16 µM
P. aeruginosa PAO1 [2]
  MIC: 16 µM

## LKLMGIVKKVLGKL-NH2 [K13–1]
S. aureus ATCC 12600
  MIC: 128 µM
P. aeruginosa PAO1 [1]
  FICI, combined with PMB: 0.6
E. coli ATCC 11775
  MIC: 4 µM
[3]; at 4-fold MIC, 24 h
  toxicity: toxic
P. aeruginosa PA14
  MIC: 16 µM
P. aeruginosa PAO1 [2]
  MIC: 8 µM
[4]
  toxicity: low toxicity

## polymyxin B [PMB]
[5]
  change of MIC during resistance assay: did not vary significantly

## LKLMGIVKKVLGAL-NH2 [WT1, reference compound]
S. aureus ATCC 12600
  MIC: 16 µM
P. aeruginosa PAO1 [1]
  FICI, combined with PMB: 0.7
  FICI, WT1 and WT2 in combination: 0.7
E. coli ATCC 11775
  MIC: 8 µM
P. aeruginosa PA14
  MIC: 32 µM
P. aeruginosa PAO1 [2]
  MIC: 32 µM
Human erythrocytes
  hemolytic activity: hemolytic activity
Mouse erythrocytes
  hemolytic activity: hemolytic activity

## LKLLAIVKKVLGAI-NH2 [A5–2]
S. aureus ATCC 12600
  MIC: 4 µM
E. coli ATCC 11775
  MIC: 4 µM

## LKLLGIVKKVLAAI-NH2 [A12–2]
S. aureus ATCC 12600
  MIC: 2 µM
E. coli ATCC 11775
  MIC: 4 µM

## LKLLGIVKKKLGAI-NH2 [K10–2]
S. aureus ATCC 12600
  MIC: 8 µM
E. coli ATCC 11775
  MIC: 4 µM
[3]; at 16 μmol L^−1, 24 h
  toxicity: no toxicity
P. aeruginosa PA14
  MIC: 8 µM
P. aeruginosa PAO1 [2]
  MIC: 4 µM
[4]; at 8 μmol L^−1, 24 h
  cell viability remaining: 92%
